{
  "source": "patent US20080003627A1",
  "about": "“SYSTEM FOR BIOSYNTHESIS OF FIREFLY LU[…] WITH NATURAL L-CYSTEINE OR DERIVATIVES THEREOF AND LU[…] SOLUTIONS CONTAINING THE SYSTEM” (NATIONAL INSTITUTE OF ADVANCED INDUSTRIAL SCIENCE AND …, priority 2004, published 2008)",
  "molecular_target": "firefly luciferase (Photinus pyralis, UniProt P08659)",
  "sequence (P08659 whole entry)": "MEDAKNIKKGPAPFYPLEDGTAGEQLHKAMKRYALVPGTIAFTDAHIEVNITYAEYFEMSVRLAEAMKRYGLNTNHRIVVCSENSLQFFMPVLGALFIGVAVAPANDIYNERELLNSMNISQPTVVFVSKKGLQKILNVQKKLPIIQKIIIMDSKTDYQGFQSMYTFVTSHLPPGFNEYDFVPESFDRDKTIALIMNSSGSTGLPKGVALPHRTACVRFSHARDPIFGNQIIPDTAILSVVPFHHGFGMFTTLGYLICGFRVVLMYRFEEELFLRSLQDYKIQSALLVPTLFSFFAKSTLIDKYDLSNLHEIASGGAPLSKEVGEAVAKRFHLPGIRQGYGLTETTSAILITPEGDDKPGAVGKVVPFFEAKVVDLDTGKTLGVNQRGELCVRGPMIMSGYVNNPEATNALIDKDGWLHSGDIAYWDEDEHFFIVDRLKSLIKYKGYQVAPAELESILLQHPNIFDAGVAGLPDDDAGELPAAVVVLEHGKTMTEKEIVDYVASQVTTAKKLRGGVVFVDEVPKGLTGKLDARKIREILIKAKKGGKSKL",
  "assay": "firefly luminescence reaction (luminescence activity as substrate)",
  "type": "biochemical",
  "settings": "ATP, Mg ion, luminometer",
  "experimental": "In a buffer solution (0.1 M Tris-HCl, pH 8), 10 mM 2-cyano-6-hydroxybenzothiazole, 1 mM L-cysteine, 10 mM COA-SH, 0.1 mg/mL of firefly luciferase and 100 units/mL of swine liver esterase were dissolved, 10 μL of the mixture was dispensed in a tube for measuring the luminescence, and a total volume was made 100 μL by adding the same buffer. An ATP—Mg solution (100 μL, 6 mM ATP—Na, 16 mM MgSO4) was injected thereto to initiate a luminescence reaction, and a luminescence amount was measured using a luminometer AB2200 supplied from ATTO Corporation.",
  "data": [
    {"smiles": "CC(C)(COP(=O)(O)OP(=O)(O)OCC1OC(n2cnc3c(N)ncnc32)C(O)C1OP(=O)(O)O)C(O)C(=O)NCCC(=O)NCCSC(=O)C1CSC(c2nc3ccc(O)cc3s2)=N1", "note": "(stereo not shown) [luciferyl-CoA]", "values": [
      {"measurement": "luminescence activity (produces luminescence with luciferase)", "result": "does not produce the luminescence"}
    ]}
  ]
}
